In patent publication US10131652B2, “Pyrimidinyloxy benzene derivatives as herbicides” (E. I. DU PONT DE NEMOURS AND COMPANY, priority 2014, dated 2018):

What was measured:
Assay type in all cases: in vivo
[1] = test system: winter wheat (Triticum aestivum); assay: Test D pre-/postemergence plant response
Procedure, shortened: (§1)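 Visual injury scoring (0–100) at 13 to 15 days in greenhouse. Preemergence sprays on seeded loam/sand; postemergence sprays on 1–4 leaf plants.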

[2] = test system: lambsquarters (Chenopodium album); assay: Test D pre-/postemergence plant response
Procedure, shortened: as §1

[3] = test system: oilseed rape (Brassica napus); assay: Test D pre-/postemergence plant response
Procedure, shortened: as §1

corn (Zea mays) = assay: Test D pre-/postemergence plant response
Procedure, shortened: as §1

[4] = test system: galium (catchweed bedstraw, Galium aparine); assay: Test D pre-/postemergence plant response
Procedure, shortened: as §1

[5] = test system: Italian ryegrass (Lolium multiflorum); assay: Test D pre-/postemergence plant response
Procedure, shortened: as §1

[6] = test system: velvetleaf (Abutilon theophrasti); assay: Test D pre-/postemergence plant response
Procedure, shortened: as §1

[7] = test system: ragweed (common ragweed, Ambrosia elatior); assay: Test B pre-/postemergence plant response
Procedure, shortened: (§2)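 Ratings reflect visual injury versus untreated controls, from 0 for no effect to 100 for complete control, assessed roughly 10 days after treatment. Formulation: non-phytotoxic solvent mix with surfactant; pre- and postemergence sprays on plants grown in loam soil and sand.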

kochia (Kochia scoparia) = assay: Test B pre-/postemergence plant response
Procedure, shortened: as §2

[8] = test system: Italian ryegrass (Lolium multiflorum); assay: Test B pre-/postemergence plant response
Procedure, shortened: as §2

[9] = test system: ducksalad (Heteranthera limosa); assay: Test C flooded paddy test plant response; settings: Flood, 250 g ai/ha; scale of 0 to 100 where 0 is no effect and 100 is complete control; 13 to 15 days
Procedure, shortened: (§3)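 Readout is a visual 0–100 score (100 = complete control) versus controls at 13–15 days. Plants at 2-leaf stage, flooded to 3 cm, treated through paddy water.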

[10] = test system: barnyardgrass (Echinochloa crus-galli); assay: Test C flooded paddy test plant response; settings: Flood, 250 g ai/ha; scale of 0 to 100 where 0 is no effect and 100 is complete control; 13 to 15 days
Procedure, shortened: as §3

[11] = test system: small-flower umbrella sedge (Cyperus difformis); assay: Test C flooded paddy test plant response; settings: Flood, 250 g ai/ha; scale of 0 to 100 where 0 is no effect and 100 is complete control; 13 to 15 days
Procedure, shortened: as §3

rice (Oryza sativa) = assay: Test C flooded paddy test plant response; settings: Flood, 250 g ai/ha; scale of 0 to 100 where 0 is no effect and 100 is complete control; 13 to 15 days
Procedure, shortened: as §3

[12] = Postemergence, 31 g ai/ha, scale 0 to 100 (0 no effect, 100 complete control)
[13] = Postemergence, 62 g ai/ha, scale 0 to 100, 0 no effect, 100 complete control
[14] = Postemergence, 125 g ai/ha, scale 0 to 100, 0 no effect, 100 complete control
[15] = Preemergence, 16 g ai/ha, scale 0 to 100 (0 no effect, 100 complete control)
[16] = Preemergence, 31 g ai/ha, scale 0 to 100 (0 no effect, 100 complete control)
[17] = Preemergence, 62 g ai/ha, scale 0 to 100 (0 no effect, 100 complete control)
[18] = Postemergence, 16 g ai/ha, scale 0 to 100 (0 no effect, 100 complete control)
[19] = 31 g ai/ha, Preemergence, 0 to 100 scale where 0 is no effect and 100 is complete control
[20] = 125 g ai/ha, postemergence, 0 to 100 scale, 0 no effect, 100 complete control
[21] = Preemergence, 125 g ai/ha, 0 to 100 scale (0 no effect, 100 complete control)
[22] = Preemergence, 8 g ai/ha, scale 0 to 100 (0 no effect, 100 complete control)
[23] = Postemergence, 31 g ai/ha, 0 to 100 scale (0 no effect, 100 complete control)

## FC(F)Oc1cccc(Oc2ncc(Cl)cn2)c1-c1cc(C(F)F)on1 [Compound 131]
[1]; [12]
  Wheat plant response rating: 0
[1]; [13]
  Plant response rating, Wheat: 0
[1]; [14]
  Plant response rating, Wheat: 0
[1]; Preemergence, 125 g ai/ha
  Plant response rating (scale 0 to 100), Wheat: 5
[1]; [15]
  Plant response rating, Wheat: 0
[1]; [16]
  Plant response rating, Wheat: 0
[1]; [17]
  Plant response rating, Wheat: 0
[2]; [12]
  Lambsquarters plant response rating: 98
[2]; [13]
  Plant response rating, Lambsquarters: 98
[2]; [14]
  Plant response rating, Lambsquarters: 100
[2]; Preemergence, 125 g ai/ha
  Plant response rating (scale 0 to 100), Lambsquarters: 98
[2]; [15]
  Plant response rating, Lambsquarters: 75
[2]; [16]
  Plant response rating, Lambsquarters: 80
[2]; [17]
  Plant response rating, Lambsquarters: 85
[3]; [12]
  Oilseed Rape plant response rating: 45
[3]; [13]
  Plant response rating, Oilseed Rape: 80
[3]; [14]
  Plant response rating, Oilseed Rape: 85
[3]; Preemergence, 125 g ai/ha
  Plant response rating (scale 0 to 100), Oilseed Rape: 95
[3]; [15]
  Plant response rating, Oilseed Rape: 10
[3]; [16]
  Plant response rating, Oilseed Rape: 50
[3]; [17]
  Plant response rating, Oilseed Rape: 85
Corn (Zea mays); [18]
  Corn plant response rating: 5
Corn (Zea mays); [12]
  Corn plant response rating: 5
Corn (Zea mays); [13]
  Plant response rating, Corn: 10
Corn (Zea mays); [14]
  Plant response rating, Corn: 25
Corn (Zea mays); Preemergence, 125 g ai/ha
  Plant response rating (scale 0 to 100), Corn: 65
Corn (Zea mays); [15]
  Plant response rating, Corn: 0
Corn (Zea mays); [16]
  Plant response rating, Corn: 10
Corn (Zea mays); [17]
  Plant response rating, Corn: 60
[4]; [12]
  Galium plant response rating: 85
[4]; [13]
  Plant response rating, Galium: 95
[4]; [14]
  Plant response rating, Galium: 95
[4]; Preemergence, 125 g ai/ha
  Plant response rating (scale 0 to 100), Galium: 90
[4]; [15]
  Plant response rating, Galium: 95
[4]; [16]
  Plant response rating, Galium: 30
[4]; [17]
  Plant response rating, Galium: 90
[5]; [12]
  Ryegrass, Italian plant response rating: 5
[5]; [13]
  Plant response rating, Ryegrass, Italian: 5
[5]; [14]
  Plant response rating, Ryegrass, Italian: 25
[5]; Preemergence, 125 g ai/ha
  Plant response rating (scale 0 to 100), Ryegrass, Italian: 90
[5]; [15]
  Plant response rating, Ryegrass, Italian: 0
[5]; [16]
  Plant response rating, Ryegrass, Italian: 20
[5]; [17]
  Plant response rating, Ryegrass, Italian: 35
[6]; [12]
  Velvetleaf plant response rating: 65
[6]; [13]
  Plant response rating, Velvetleaf: 80
[6]; [14]
  Plant response rating, Velvetleaf: 85
[6]; Preemergence, 125 g ai/ha
  Plant response rating (scale 0 to 100), Velvetleaf: 98
[6]; [15]
  Plant response rating, Velvetleaf: 20
[6]; [16]
  Plant response rating, Velvetleaf: 65
[6]; [17]
  Plant response rating, Velvetleaf: 80
[7]; [19]
  Plant response rating, Ragweed: 20
[7]; [20]
  Plant response rating, Ragweed: 70
[7]; [21]
  Ragweed plant response rating: 60
Kochia (Kochia scoparia); [19]
  Plant response rating, Kochia: 0
Kochia (Kochia scoparia); [20]
  Plant response rating, Kochia: 70
Kochia (Kochia scoparia); [21]
  Kochia plant response rating: 10
[8]; [19]
  Plant response rating, Ryegrass, Italian: 20
[8]; [20]
  Plant response rating, Ryegrass, Italian: 70
[8]; [21]
  Ryegrass, Italian plant response rating: 90
[9]
  Ducksalad plant response rating: 95
[10]
  Barnyardgrass plant response rating: 75
[11]
  Sedge, Umbrella plant response rating: 95
Rice (Oryza sativa)
  Rice plant response rating: 60

## FC(F)(Cl)c1cc(-c2ccccc2Oc2ncc(Cl)cn2)no1 [Compound 143]
[1]; [12]
  Wheat plant response rating: 5
[1]; [13]
  Plant response rating, Wheat: 5
[1]; [14]
  Plant response rating, Wheat: 5
[1]; [22]
  Plant response rating, Wheat: 0
[1]; [15]
  Plant response rating, Wheat: 0
[1]; [16]
  Plant response rating, Wheat: 0
[1]; [17]
  Plant response rating, Wheat: 0
[2]; [12]
  Lambsquarters plant response rating: 80
[2]; [13]
  Plant response rating, Lambsquarters: 98
[2]; [14]
  Plant response rating, Lambsquarters: 100
[2]; [22]
  Plant response rating, Lambsquarters: 25
[2]; [15]
  Plant response rating, Lambsquarters: 70
[2]; [16]
  Plant response rating, Lambsquarters: 85
[2]; [17]
  Plant response rating, Lambsquarters: 85
[3]; [12]
  Oilseed Rape plant response rating: 50
[3]; [13]
  Plant response rating, Oilseed Rape: 60
[3]; [14]
  Plant response rating, Oilseed Rape: 65
[3]; [22]
  Plant response rating, Oilseed Rape: 0
[3]; [15]
  Plant response rating, Oilseed Rape: 0
[3]; [16]
  Plant response rating, Oilseed Rape: 85
[3]; [17]
  Plant response rating, Oilseed Rape: 95
Corn (Zea mays); [18]
  Corn plant response rating: 5
Corn (Zea mays); [12]
  Corn plant response rating: 5
Corn (Zea mays); [13]
  Plant response rating, Corn: 5
Corn (Zea mays); [14]
  Plant response rating, Corn: 10
Corn (Zea mays); [22]
  Plant response rating, Corn: 0
Corn (Zea mays); [15]
  Plant response rating, Corn: 0
Corn (Zea mays); [16]
  Plant response rating, Corn: 5
Corn (Zea mays); [17]
  Plant response rating, Corn: 100
[4]; [12]
  Galium plant response rating: 70
[4]; [13]
  Plant response rating, Galium: 70
[4]; [14]
  Plant response rating, Galium: 100
[4]; [22]
  Plant response rating, Galium: 10
[4]; [15]
  Plant response rating, Galium: 10
[4]; [16]
  Plant response rating, Galium: 80
[4]; [17]
  Plant response rating, Galium: 80
[5]; [12]
  Ryegrass, Italian plant response rating: 0
[5]; [13]
  Plant response rating, Ryegrass, Italian: 0
[5]; [14]
  Plant response rating, Ryegrass, Italian: 15
[5]; [22]
  Plant response rating, Ryegrass, Italian: 0
[5]; [15]
  Plant response rating, Ryegrass, Italian: 5
[5]; [16]
  Plant response rating, Ryegrass, Italian: 5
[5]; [17]
  Plant response rating, Ryegrass, Italian: 70
[6]; [12]
  Velvetleaf plant response rating: 30
[6]; [13]
  Plant response rating, Velvetleaf: 50
[6]; [14]
  Plant response rating, Velvetleaf: 65
[6]; [22]
  Plant response rating, Velvetleaf: 35
[6]; [15]
  Plant response rating, Velvetleaf: 30
[6]; [16]
  Plant response rating, Velvetleaf: 75
[6]; [17]
  Plant response rating, Velvetleaf: 85
[7]; [19]
  Plant response rating, Ragweed: 0
[7]; [20]
  Plant response rating, Ragweed: 20
[7]; [23]
  Plant response rating, Ragweed: 0
[7]; [21]
  Ragweed plant response rating: 30
Kochia (Kochia scoparia); [19]
  Plant response rating, Kochia: 30
Kochia (Kochia scoparia); [20]
  Plant response rating, Kochia: 100
Kochia (Kochia scoparia); [23]
  Plant response rating, Kochia: 100
Kochia (Kochia scoparia); [21]
  Kochia plant response rating: 90
[8]; [19]
  Plant response rating, Ryegrass, Italian: 0
[8]; [20]
  Plant response rating, Ryegrass, Italian: 50
[8]; [23]
  Plant response rating, Ryegrass, Italian: 0
[8]; [21]
  Ryegrass, Italian plant response rating: 60
[9]
  Ducksalad plant response rating: 85
[10]
  Barnyardgrass plant response rating: 30
[11]
  Sedge, Umbrella plant response rating: 100
Rice (Oryza sativa)
  Rice plant response rating: 35
